Assay results taken from patent US9376425B2, “Heterocyclic compounds as MDM2 inhibitors for the treatment of cancer” (AMGEN INC., priority 2011, dated 2016).

target: T1, human MDM2 (GST-hMDM2 1-188), interaction with biotinylated-p53 (1-83) (Homo sapiens, UniProt Q00987); test: improved HTRF assay (HTRF2 assay), inhibition of HDM2-p53 interaction; format: binding; conditions: 0.2 nM GST-hMDM2, 0.5 nM biotinylated-p53, 100 mM KF
T1 construct: Amino acid residues 1-188 of human MDM2 were expressed; made in house; host or cells: Escherichia coli
T1 sequence (Q00987 1-188): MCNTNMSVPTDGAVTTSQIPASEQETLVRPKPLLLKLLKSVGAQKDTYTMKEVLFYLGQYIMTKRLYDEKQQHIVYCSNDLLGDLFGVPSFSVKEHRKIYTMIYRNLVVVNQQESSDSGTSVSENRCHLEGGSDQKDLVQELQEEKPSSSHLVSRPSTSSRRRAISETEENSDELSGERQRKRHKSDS
Outline: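 GST-hMDM2 preincubated 20 min at RT with serially diluted compound, then biotinylated p53 (1-83, E. coli) added for 60 min. Detection with SA-XLent, anti-GST cryptate and KF, equilibrated >4 h; final DMSO 2%. TR-FRET read; % inhibition calculated relative to nutlin-3.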

SMILES	IC50 [nM]
CC(C)(C)S(=O)(=O)C[C@H](C1CC1)N1C(=O)[C@@H](CC(=O)O)O[C@H](c2cccc(Cl)c2F)[C@H]1c1ccc(Cl)cc1.CC(C)(C)S(=O)(=O)C[C@H](C1CC1)N1C(=O)[C@H](CC(=O)O)O[C@H](c2cccc(Cl)c2F)[C@H]1c1ccc(Cl)cc1 (mixture of isomers) [Example 326, 2-((2R,5R,6R)-4-((S)-2-(tert-Butylsulfonyl)-1-cyclopropylethyl)-6-(3-chloro-2-fluorophenyl)-5-(4-chlorophenyl)-3-oxomorpholin-2-yl)acetic acid and 2-((2S,5R,6R)-4-((S)-2-(tert-butylsulfonyl)-1-cyclopropylethyl)-6-(3-chloro-2-fluorophenyl)-5-(4-chlorophenyl)-3-oxomorpholin-2-yl)acetic acid]	< 1
CC(C)(C)S(=O)(=O)C[C@H](C1CC1)N1C(=O)[C@@H](Cc2cnn[nH]2)O[C@H](c2cccc(Cl)c2)[C@H]1c1ccc(Cl)cc1 (single isomer, unassigned) [Example 386, (2R,5R,6R)-2-((1H-1,2,3-Triazol-5-yl)methyl)-4-((S)-2-(tert-butylsulfonyl)-1-cyclopropylethyl)-6-(3-chlorophenyl)-5-(4-chlorophenyl)morpholin-3-one or (2S,5R,6R)-2-((1H-1,2,3-triazol-5-yl)methyl)-4-((S)-2-(tert-butylsulfonyl)-1-cyclopropylethyl)-6-(3-chlorophenyl)-5-(4-chlorophenyl)morpholin-3-one]	13
CC[C@@H](CN(C)S(=O)(=O)C1CC1)N1C(=O)[C@@H](Cc2nnn[nH]2)O[C@H](c2cccc(Cl)c2)[C@H]1c1ccc(Cl)cc1 (single isomer, unassigned) [Example 243, N-((S)-2-((2R,5R,6R)-2-((1H-tetrazol-5-yl)methyl)-6-(3-chlorophenyl)-5-(4-chlorophenyl)-3-oxomorpholino)butyl)-N-methylcyclopropanesulfonamide or N-((S)-2-((2S,5R,6R)-2-((1H-tetrazol-5-yl)methyl)-6-(3-chlorophenyl)-5-(4-chlorophenyl)-3-oxomorpholino)butyl)-N-methylcyclopropanesulfonamide]	1
CC[C@@H]([C@H](C)S(=O)(=O)C(C)C)N1C(=O)[C@@H](CC(=O)O)O[C@H](c2cccc(Cl)c2)[C@H]1c1ccc(Cl)cc1 (single isomer, unassigned) [Example 416]	4
CC(C)(C)S(=O)(=O)C[C@H](C1CC1)N1C(=O)[C@@H](CC(=O)O)O[C@H](c2ccc(C#N)c(Cl)c2)[C@H]1c1ccc(Cl)cc1 (single isomer, unassigned) [Example 325, 2-((2R,5R,6R)-4-((S)-2-(tert-Butylsulfonyl)-1-cyclopropylethyl)-6-(3-chloro-4-cyanophenyl)-5-(4-chlorophenyl)-3-oxomorpholin-2-yl)acetic acid or 2-((2S,5R,6R)-4-((S)-2-(tert-butylsulfonyl)-1-cyclopropylethyl)-6-(3-chloro-4-cyanophenyl)-5-(4-chlorophenyl)-3-oxomorpholin-2-yl)acetic acid]	4
C[C@@H]1CCCN1S(=O)(=O)C[C@H](C1CC1)N1C(=O)[C@@H](CC(=O)O)O[C@H](c2cccc(Cl)c2)[C@H]1c1ccc(Cl)cc1 (single isomer, unassigned) [Example 304, 2-((2R,5R,6R)-6-(3-Chlorophenyl)-5-(4-chlorophenyl)-4-((S)-1-cyclopropyl-2-(((R)-2-methylpyrrolidin-1-yl)sulfonyl)ethyl)-3-oxomorpholin-2-yl)acetic acid or 2-((2S,5R,6R)-6-(3-chlorophenyl)-5-(4-chlorophenyl)-4-((S)-1-cyclopropyl-2-(((R)-2-methylpyrrolidin-1-yl)sulfonyl)ethyl)-3-oxomorpholin-2-yl)acetic acid]	< 1
CC[C@@H](CS(=O)(=O)C(C)(C)C)N1C(=O)[C@@H](CC(=O)O)O[C@H](c2cccc(Cl)c2)[C@H]1c1ccc(Cl)cc1F (single isomer, unassigned) [Example 316, 2-((2R,5R,6R)-4-((S)-1-(tert-Butylsulfonyl)butan-2-yl)-5-(4-chloro-2-fluorophenyl)-6-(3-chlorophenyl)-3-oxomorpholin-2-yl)acetic acid or 2-((2S,5R,6R)-4-((S)-1-(tert-butylsulfonyl)butan-2-yl)-5-(4-chloro-2-fluorophenyl)-6-(3-chlorophenyl)-3-oxomorpholin-2-yl)acetic acid]	2
CC[C@@H](CS(=O)(=O)C(C)(C)C)N1C(=O)[C@@H](CNC(=O)N(CC)CC)O[C@H](c2cccc(Cl)c2)[C@H]1c1ccc(Cl)cc1 (single isomer, unassigned) [Example 376, 3-(((2R,5R,6R)-4-((S)-1-(tert-Butylsulfonyl)butan-2-yl)-6-(3-chlorophenyl)-5-(4-chlorophenyl)-3-oxomorpholin-2-yl)methyl)-1,1-diethylurea or 3-(((2S,5R,6R)-4-((S)-1-(tert-butylsulfonyl)butan-2-yl)-6-(3-chlorophenyl)-5-(4-chlorophenyl)-3-oxomorpholin-2-yl)methyl)-1,1-diethylurea]	48
O=C(O)C[C@H]1O[C@H](c2cccc(Cl)c2)[C@@H](c2ccc(Cl)cc2)N([C@H](CN(c2ncccc2F)S(=O)(=O)C2CC2)C2CC2)C1=O (single isomer, unassigned) [Example 188, 2-((2R,5R,6R)-6-(3-chlorophenyl)-5-(4-chlorophenyl)-4-((S)-1-cyclopropyl-2-(N-(3-fluoropyridin-2-yl)cyclopropanesulfonamido)ethyl)-3-oxomorpholin-2-yl)acetic acid or 2-((2S,5R,6R)-6-(3-chlorophenyl)-5-(4-chlorophenyl)-4-((S)-1-cyclopropyl-2-(N-(3-fluoropyridin-2-yl)cyclopropanesulfonamido)ethyl)-3-oxomorpholin-2-yl)acetic acid]	< 1
CC[C@@H](CS(=O)(=O)C(C)(C)C)N1C(=O)[C@@H](CC(=O)OC)O[C@H](c2cccc(Cl)c2)[C@H]1c1ccc(Cl)cc1 [Example 149, Methyl 2-((2R,5R,6R)-4-((S)-1-(tert-butylsulfonyl)butan-2-yl)-6-(3-chlorophenyl)-5-(4-chlorophenyl)-3-oxomorpholin-2-yl)acetate]	30
CC[C@@H](CN(c1ccccc1F)S(=O)(=O)C1(C)CC1)N1C(=O)[C@@H](CC(=O)O)O[C@H](c2cccc(Cl)c2)[C@H]1c1ccc(Cl)cc1 (single isomer, unassigned) [Example 175, 2-((2R,5R,6R)-6-(3-chlorophenyl)-5-(4-chlorophenyl)-4-((S)-1-(N-(2-fluorophenyl)-1-methylcyclopropanesulfonamido)butan-2-yl)-3-oxomorpholin-2-yl)acetic acid or 2-((2S,5R,6R)-6-(3-chlorophenyl)-5-(4-chlorophenyl)-4-((S)-1-(N-(2-fluorophenyl)-1-methylcyclopropanesulfonamido)butan-2-yl)-3-oxomorpholin-2-yl)acetic acid]	< 1
CC[C@@H](CS(=O)(=O)[C@H](C)C(C)C)N1C(=O)[C@H](CC(=O)O)O[C@H](c2cccc(Cl)c2)[C@H]1c1ccc(Cl)cc1 (single isomer, unassigned) [Example 283]	3
